According to the supplement of paper PMC13207355:

Experiments:
Details in all cases: exposure time: 72 h
[1] = system: E28 (patient-derived glioblastoma stem cells of classical subtype); experiment: surviving fraction (nuclei count normalised to DMSO); higher = more cells surviving (less toxic)
[2] = system: FT3469 (normal neural stem cell line); experiment: as above
[3] = system: E34 (patient-derived glioblastoma stem cells of proneural subtype); experiment: as above
[4] = system: E21 (patient-derived glioblastoma stem cells of mesenchymal subtype); experiment: as above
[5] = system: E57 (patient-derived glioblastoma stem cells of mesenchymal subtype); experiment: as above
[6] = system: E31 (patient-derived glioblastoma stem cells of proneural subtype); experiment: as above
[7] = system: E13 (patient-derived glioblastoma stem cells of classical subtype); experiment: as above
[8] = system: E28; experiment: phenotypic distance (Euclidean, principal components) from DMSO controls (arbitrary units); higher = stronger morphological change
[9] = system: FT3469; experiment: as above
[10] = system: E34; experiment: as above
[11] = system: E21; experiment: as above
[12] = system: E57; experiment: as above
[13] = system: E31; experiment: as above
[14] = system: E13; experiment: as above
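Wherever phenotypic distance (Euclidean, principal components) from DMSO controls is given: cell Painting imaging in 384-well plates, CellProfiler features reduced to at least 20 principal components, Euclidean distance versus same-plate DMSO vehicle wells (0.1% v/v), median over six images per well.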
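Wherever surviving fraction (nuclei count normalised to DMSO) is given: nuclei counted by high-content imaging of Hoechst-stained cells in laminin-coated 384-well plates, relative to 0.1% DMSO vehicle wells, with staurosporine as cell-death control.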

O=C(/C=C\n1cnc(-c2cc(C(F)(F)F)cc(C(F)(F)F)c2)n1)NNc1cnccn1 [Selinexor]
Details | phenotypic distance | surviving fraction
[1], 4.1 nM | – | 0.643
[1], 12.3 nM | – | 0.605
[1], 37 nM | – | 0.441
[1], 111.1 nM | – | 0.4
[1], 333.3 nM | – | 0.327
[1], 1000 nM | – | 0.373
[1], 3000 nM | – | 0.246
[2], 4.1 nM | – | 0.614
[2], 12.3 nM | – | 0.659
[2], 37 nM | – | 0.616
[2], 111.1 nM | – | 0.614
[2], 333.3 nM | – | 0.692
[2], 1000 nM | – | 0.556
[2], 3000 nM | – | 0.612
[3], 4.1 nM | – | 0.782
[3], 12.3 nM | – | 0.833
[3], 37 nM | – | 0.867
[3], 111.1 nM | – | 0.547
[3], 333.3 nM | – | 0.582
[3], 1000 nM | – | 0.569
[3], 3000 nM | – | 0.582
[4], 4.1 nM | – | 0.753
[4], 12.3 nM | – | 0.729
[4], 37 nM | – | 0.667
[4], 111.1 nM | – | 0.572
[4], 333.3 nM | – | 0.541
[4], 1000 nM | – | 0.51
[4], 3000 nM | – | 0.315
[5], 4.1 nM | – | 0.554
[5], 12.3 nM | – | 0.554
[5], 37 nM | – | 0.43
[5], 111.1 nM | – | 0.286
[5], 333.3 nM | – | 0.313
[5], 1000 nM | – | 0.32
[5], 3000 nM | – | 0.244
[6], 4.1 nM | – | 0.703
[6], 12.3 nM | – | 0.51
[6], 37 nM | – | 0.444
[6], 111.1 nM | – | 0.38
[6], 333.3 nM | – | 0.311
[6], 1000 nM | – | 0.331
[6], 3000 nM | – | 0.239
[7], 4.1 nM | – | 0.654
[7], 12.3 nM | – | 0.572
[7], 37 nM | – | 0.418
[7], 111.1 nM | – | 0.355
[7], 333.3 nM | – | 0.384
[7], 1000 nM | – | 0.31
[7], 3000 nM | – | 0.242
[8], 4.1 nM | 1.34 | –
[8], 12.3 nM | 1.88 | –
[8], 37 nM | 2.76 | –
[8], 111.1 nM | 2.65 | –
[8], 333.3 nM | 2.86 | –
[8], 1000 nM | 2.69 | –
[8], 3000 nM | 3.06 | –
[9], 4.1 nM | 1.68 | –
[9], 12.3 nM | 2.14 | –
[9], 37 nM | 1.85 | –
[9], 111.1 nM | 1.78 | –
[9], 333.3 nM | 2.12 | –
[9], 1000 nM | 1.48 | –
[9], 3000 nM | 1.57 | –
[10], 4.1 nM | 1.14 | –
[10], 12.3 nM | 1.28 | –
[10], 37 nM | 1.6 | –
[10], 111.1 nM | 1.64 | –
[10], 333.3 nM | 1.71 | –
[10], 1000 nM | 1.72 | –
[10], 3000 nM | 2.17 | –
[11], 4.1 nM | 2.91 | –
[11], 12.3 nM | 3.17 | –
[11], 37 nM | 3.01 | –
[11], 111.1 nM | 3.44 | –
[11], 333.3 nM | 3.53 | –
[11], 1000 nM | 3.96 | –
[11], 3000 nM | 4.26 | –
[12], 4.1 nM | 2.64 | –
[12], 12.3 nM | 2.17 | –
[12], 37 nM | 2.78 | –
[12], 111.1 nM | 3.97 | –
[12], 333.3 nM | 4.39 | –
[12], 1000 nM | 5.44 | –
[12], 3000 nM | 6.2 | –
[13], 4.1 nM | 2.16 | –
[13], 12.3 nM | 2.72 | –
[13], 37 nM | 2.72 | –
[13], 111.1 nM | 3.08 | –
[13], 333.3 nM | 2.98 | –
[13], 1000 nM | 2.55 | –
[13], 3000 nM | 3.17 | –
[14], 4.1 nM | 1.6 | –
[14], 12.3 nM | 2.09 | –
[14], 37 nM | 3.06 | –
[14], 111.1 nM | 3.35 | –
[14], 333.3 nM | 3.49 | –
[14], 1000 nM | 3.23 | –
[14], 3000 nM | 4.73 | –
